Columns and labels:
Bcl-2 = Bcl-2 (Homo sapiens, UniProt P10415); assay: Bcl-2 binding affinity analysis (fluorescence polarization binding assay)
Outline: (§1)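 Quantitative binding by polarized-fluorescence detection; in vitro, no cells involved.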

Bcl-xL = Bcl-xL (Homo sapiens, UniProt Q07817); assay: Bcl-xL binding affinity analysis (fluorescence polarization binding assay); design: scale not given here
Outline: as §1

Sequence of Bcl-2 (P10415 whole entry): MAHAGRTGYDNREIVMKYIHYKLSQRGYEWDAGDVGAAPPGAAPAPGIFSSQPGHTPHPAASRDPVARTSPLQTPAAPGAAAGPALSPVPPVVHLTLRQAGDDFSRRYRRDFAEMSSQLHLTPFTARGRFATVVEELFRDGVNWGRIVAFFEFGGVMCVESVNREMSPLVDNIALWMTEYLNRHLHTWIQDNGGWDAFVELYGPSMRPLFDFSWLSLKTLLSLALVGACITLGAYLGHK
Sequence of Bcl-xL (Q07817 whole entry): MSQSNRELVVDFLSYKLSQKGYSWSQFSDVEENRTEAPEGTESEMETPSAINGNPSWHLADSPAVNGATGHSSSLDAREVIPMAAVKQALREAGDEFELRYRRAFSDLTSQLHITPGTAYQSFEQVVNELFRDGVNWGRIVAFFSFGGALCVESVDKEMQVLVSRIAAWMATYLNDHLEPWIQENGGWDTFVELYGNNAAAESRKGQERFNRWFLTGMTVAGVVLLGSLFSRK

Row | Compound | Ki (Bcl-2) | Bcl-XL binding affinity Ki (Bcl-xL)
1 | CC(O)[C@H]1[C@@H](CO)ON(Cc2cccc(C#CC(C)(C)c3ccccc3)c2)[C@H]1C(=O)NCCCN(C)c1ccccc1 (stereo partly drawn) [Compound 31] | 800 to 6000 nM | ♯
2 | C[C@H](O)[C@@H]1[C@H](CO)ON(Cc2cccc(CN(CCN(C)C)Cc3ccccc3)c2)[C@@H]1C(=O)N[C@H](C)c1ccc2ccccc2c1 [Compound 522] | 800 to 6000 nM | ♯
3 | C[C@@H](O)[C@H]1[C@@H](CO)ON(Cc2cccc(C#CCNC(=O)c3ccccc3)c2)[C@H]1C(=O)NCCNCc1ccccc1 [Compound 61] | 6000 to 50000 nM | ♯
4 | CC(C)CC(CN(C)C)NCc1cccc(CN2O[C@@H](CO)C([C@H](C)O)[C@H]2C(=O)NC2CC3CC([C@@H]2C)C3(C)C)c1 (stereo partly drawn) [Compound 223] | < 800 nM | ♯
5 | CC(C)CC(CN(C)C)N(Cc1cccc(CN2OC(CO)C(C(C)O)C2C(=O)NC2CC3CC(C2C)C3(C)C)c1)Cc1cccc2c1OCO2 (stereo not drawn) [Compound 302] | < 800 nM | ♯
6 | C[C@@H](O)[C@H]1[C@@H](CO)ON(Cc2cccc(C#CCNC(=O)c3ccccc3)c2)[C@H]1C(=O)NCCCCc1ccccc1 [Compound 64] | 800 to 6000 nM | ♯
7 | C[C@@H](O)[C@H]1[C@@H](CO)ON(Cc2cccc(C#CC3(O)CCCC3)c2)[C@H]1C(=O)NCC1CCCCC1 [Compound 40] | > 50000 nM | ♯
8 | C[C@@H]1[C@@H](NC(=O)[C@@H]2[C@H]([C@H](C)O)[C@H](CO)ON2CCCCN(CCCc2ccccc2)CCN(C)C)C[C@H]2C[C@@H]1C2(C)C [Compound 545] | 800 to 6000 nM | ♯

Second part, the compound after the results:

Row | Ki (Bcl-2) | Bcl-XL binding affinity Ki (Bcl-xL) | Compound
9 | < 800 nM | ♯ | C[C@H](O)[C@@H]1[C@H](CO)ON(Cc2cccc(-c3ccc(C(=O)N[C@H]4CCN(C)C4)cc3)c2)[C@@H]1C(=O)NC1C[C@H]2C[C@@H]([C@@H]1C)C2(C)C (stereo partly drawn) [Compound 231]
10 | < 800 nM | ♯ | CC(C)[C@H](CN(C)C)NC(=O)c1cccc(-c2cccc(CN3O[C@@H](CO)[C@@H]([C@H](C)O)[C@H]3C(=O)N[C@H]3C[C@H]4C[C@@H]([C@@H]3C)C4(C)C)c2)c1 [Compound 103]
11 | < 800 nM | ♯ | C[C@@H]1[C@@H](NC(=O)[C@@H]2[C@H]([C@H](C)O)[C@H](CO)ON2Cc2cccc(-c3ccc(C(=O)N4CCOCC4)cc3)c2)C[C@H]2C[C@@H]1C2(C)C [Compound 109]
12 | < 800 nM | ♯ | CC(C)CC(CN(C)C)N(Cc1cccc(CN2OC(CO)C(C(C)O)C2C(=O)NC2CC3CC(C2C)C3(C)C)c1)Cc1ccccc1N1CCN(C)CC1 (stereo not drawn) [Compound 315]
13 | < 800 nM | ♯ | CCCC(CN(C)C)N(Cc1cccc(CN2OC(CO)C(C(C)O)C2C(=O)NC2CC3CC(C2C)C3(C)C)c1)Cc1ccccc1Cl (stereo not drawn) [Compound 438]
14 | < 800 nM | ♯ | CCN(CC)CCN(CCN(CC)CC)C(=O)c1ccc(-c2cccc(CN3O[C@@H](CO)[C@@H]([C@H](C)O)[C@H]3C(=O)N[C@H]3C[C@H]4C[C@@H]([C@@H]3C)C4(C)C)c2)cc1 [Compound 188]
15 | < 800 nM | ♯ | C[C@@H]1[C@@H](NC(=O)[C@@H]2[C@H]([C@H](C)O)[C@H](CO)ON2Cc2cccc(-c3cccc(C(=O)NCCCCN(C)C)c3)c2)C[C@H]2C[C@@H]1C2(C)C [Compound 113]
16 | 800 to 6000 nM | ♯ | CC(C)C[C@@H](CN(C)C)NCc1cccc(CN2O[C@@H](CO)C([C@H](C)O)[C@H]2C(=O)N[C@H]2C[C@H]3C[C@@H]([C@@H]2C)C3(C)C)c1 (stereo partly drawn) [Compound 552]
17 | < 800 nM | ♯ | CC(C)CC(CN(C)C)N(Cc1cccc(CN2OC(CO)C(C(C)O)C2C(=O)NC2CC3CC(C2C)C3(C)C)c1)Cc1ccccc1N1CCOCC1 (stereo not drawn) [Compound 331]
18 | < 800 nM | ♯ | C[C@@H]1[C@@H](NC(=O)[C@@H]2[C@H]([C@H](C)O)[C@H](CO)ON2Cc2cccc(-c3cccc(C(=O)N[C@@H]4CCN(C)C4)c3)c2)C[C@H]2C[C@@H]1C2(C)C [Compound 137]

Source: patent US7851637B2, “Compounds and methods for inhibiting the interaction of BCL proteins with binding partners” (Infinity Pharmaceuticals, Inc., priority 2004, dated 2010)
